Data published in paper PMC2033546, “Effects of somatostatin analogue RC-160 and bombesin/gastrin-releasing peptide antagonists on the growth of human small-cell and non-small-cell lung carcinomas in nude mice” (British Journal of Cancer, 1994).
Bridges are numbered along the chain shown (N, C = ends). Where no end group is shown, it is not given here.

Experiments:
[1] = tested on: human SCLC cell line H69; assay: [3H]Thymidine incorporation assay in H69 cells; assay type: cell-based; conditions: 3 days; for [3H]thymidine incorporation into DNA of H69 cells (in words): RC-160 0.001 to 10.0 µg/ml, 5 days, RC-3005 or RC-3009 5.0 and 25.0 µg/ml; for [3H]Thymidine incorporation: Table V, mean s.e.
Text: (§1) Br. J. Cancer (1994). 70, 886 892 ? Macmillan Press Ltd.. […] Bombesin GRP antagonists. […] Lung carcinoma is the leading cause of cancer-related deaths in the western world. It is estimated that in 1992 there were approximately 168,000 new cases of lung cancer in the US and that about 146,000 deaths occurred from this disease (Boring et al., 1992). […] The growth factors such as bombesin/gastrin-releasing pep- tide (GRP), epidermal growth factor, (EGF), transforming growth factor a (TGF-x) and insulin-like growth factor I(IGF-I) appear to play a role in the proliferation and pro- gression of lung cancer (Cuttitta et al., 1985; Veale et al., 1987; Minuto et al., 1988; Siegfried & Owens, 1988; Macaulay et al., 1990; Tateishi et al., 1991; Damstrup et al., 1992; Sethi & Rozengurt, 1992; Rabiasz et al., 1992; Moody & Cuttitta, 1993). […] Tpi is 2,3,4,9-tetrahydro- Correspondence: A.V. Schally (151). VA Medical Center, 1601 Per- dido Street. New Orleans, LA 70146. USA. Received 1 March 1994; and in revised form 5 July 1994. Br. J. Cancer (1994), 70, 886-892 C Macmillan Press Ltd., 1994 PEPTIDE ANALOGUES IN LUNG CANCER 8U7 lH-pyrido [3,4bjindol-3-carboxylic acid, a conformationally constrained secondary amine derivate of tryptophan and Tac is thiazolidine-4-carboxylic acid. […] Animals Male athymic NCr nulmu nude mice, approximately 6 weeks old on arrival, were obtained from the NCI (Bethesda, MD, USA) and maintained under pathogen-limited conditions. Cell lines The human SCLC cell line NCI-H69, was obtained from the American Type Cell Culture (ATCC), Rockville, MD, USA and the non-SCLC cell line NCI-H157, from Dr H. Oie, NCI-Navy Medical Oncology Branch, Bethesda, MD, USA. These cell lines were cultured in RPMI-1640 medium supple- mented with 4 mM L-glutamine, 50 units ml-I penicilln G sodium, SOigml-' streptomycin sulphate, 0.125pgml-' amphotericin B and 10% fetal bovine serum at 3TC in a humidified 95% air/5% carbon dioxide atmosphere. CeLs were passaged weekly and routinely monitored for myco- plasma contamination using a detection kit (Boehringer- Mannheim, Mannheim, Germany). All culture media com- ponents were purchased from Gibco (Grand Island, NY, USA). Receptor assays Preparation of membranes for receptor studies was described previously (Halmos et al., 1993). Iodinated EGF and IGF-I were purchased from Amersham (Arlington Heights, IL, USA). Radioiodination of other peptides and receptor bind- ing of EGF, IGF-I, somatostatin and bombesin/GRP were performed as previously described (Srkalovic et al., 1989; Szepeshazi et al., 1992). Complete displacement assays on tumour membranes were done only once because of the shortage of tumour material. The LIGAND PC computerised curve-fitting programme of Munson and Rodbard (1980) was used to determine the types of receptor binding, dissociation constant (Kd) values, and the maximal binding capacity (BDj) of receptors. In order to determine the specificity of the binding sites for radiolabelled EGF, IGF-I, somatostatin and bombesin to lung cancer membranes, various structuraly related and unrelated peptides were tested for their ability to inhibit the binding of the tracers. Histological procedure The histological procedures were the same as described previously (Szepeshazi et al., 1991, 1992). The number of mitotic and apoptotic cells per 1,000 cells was determined, and the percentage area of necrosis in tumour sections was examined using the point-counting method (Szepeshazi et al., 1991, 1992), in which the crossing points of an ocular net that coincide with necrosis in various sections are counted. Radiommunoassays Serum levels of growth hormone were determined by double- antibody radioimmunoassay (RIA) using materials supplied by the National Hormone and Pituitary Program of the National Institute of Diabetes and Digestive and Kidney Diseases (NIDDK).

[2] = tested on: MIA PaCa-2 human pancreatic cancer cell line; conditions: ref Liebow et al., 1989; cited from earlier work
Text: (§2) Br. J. Cancer (1994). 70, 886 892 ? Macmillan Press Ltd..

[3] = tested on: human SCLC cell line NCI-H69; assay: Growth of H69 SCLC xenografts in nude mice; assay type: in vivo, human (xenograft in male athymic nude mice); conditions: for Tumour weight: antagonists 20 µg/day per animal, control 0.27 ? 0.19; for Tumour doubling time: antagonists 20 µg/day per animal s.c., control 7.5; for Growth of H69 SCLC tumours (in words): s.c. peritumorally, bombesin/GRP antagonists 20 µg per animal per day
Text: as §1

[4] = tested on: SCLC H69 tumours; assay: Histology (mitosis, apoptosis, necrosis) of SCLC H69 tumours; assay type: in vivo, human (xenograft in nude mice)
Text: as §1

[5] = tested on: EGF receptors in membranes of SCLC H69 tumours; assay: EGF receptor binding on H69 tumour membranes after in vivo treatment; parameters: species or system human; conditions: Table IV, Experiment I (SCLC-H69); tumour membranes after in vivo treatment; control 278; ten-point displacement in triplicate tubes, done once
Text: as §1, with “In order to determine the specificity of the binding sites for radiolabelled EGF, IGF-I, somatostatin and bombesin to lung cancer membranes, various structuraly related and unrelated peptides were tested for their ability to inhibit the binding of the tracers. Histological procedure The histological procedures were the same as described previously (Szepeshazi et al., 1991, 1992).” left out

[6] = tested on: IGF-I receptors in membranes of SCLC H69 tumours; assay: IGF-I receptor binding on H69 tumour membranes after in vivo treatment; parameters: species or system human; conditions: Table IV, Experiment I (SCLC-H69), control 294, done once
Text: as §1, with “Receptor assays Preparation of membranes for receptor studies was described previously (Halmos et al., 1993). Iodinated EGF and IGF-I were purchased from Amersham (Arlington Heights, IL, USA). Radioiodination of other peptides and receptor bind- ing of EGF, IGF-I, somatostatin and bombesin/GRP were performed as previously described (Srkalovic et al., 1989; Szepeshazi et al., 1992). Complete displacement assays on tumour membranes were done only once because of the shortage of tumour material. The LIGAND PC computerised curve-fitting programme of Munson and Rodbard (1980) was used to determine the types of receptor binding, dissociation constant (Kd) values, and the maximal binding capacity (BDj) of receptors. In order to determine the specificity of the binding sites for radiolabelled EGF, IGF-I, somatostatin and bombesin to lung cancer membranes, various structuraly related and unrelated peptides were tested for their ability to inhibit the binding of the tracers. Histological procedure The histological procedures were the same as described previously (Szepeshazi et al., 1991, 1992).” left out

[7] = tested on: Bombesin/GRP receptors in membranes of SCLC H69 tumours; assay: Bombesin/GRP receptor binding on H69 tumour membranes after in vivo treatment; parameters: species or system human; conditions: for Concentration of receptors for bombesin/GRP on H69 tumours (in words): after in vivo treatment
Text: as §1, with “In order to determine the specificity of the binding sites for radiolabelled EGF, IGF-I, somatostatin and bombesin to lung cancer membranes, various structuraly related and unrelated peptides were tested for their ability to inhibit the binding of the tracers. Histological procedure The histological procedures were the same as described previously (Szepeshazi et al., 1991, 1992).” left out

[8] = tested on: Somatostatin receptors in membranes of SCLC H69 tumours; assay: Somatostatin receptor binding on H69 tumour membranes after in vivo treatment; parameters: species or system human; conditions: Table IV, Experiment I (SCLC-H69); tumour membranes after in vivo treatment; control 450; done once
Text: as §1, with “In order to determine the specificity of the binding sites for radiolabelled EGF, IGF-I, somatostatin and bombesin to lung cancer membranes, various structuraly related and unrelated peptides were tested for their ability to inhibit the binding of the tracers. Histological procedure The histological procedures were the same as described previously (Szepeshazi et al., 1991, 1992).” left out

[9] = tested on: EGF receptors; conditions: various cancer lines and cancer specimens; ref Liebow et al., 1992; cited from earlier work
Text: as §2

[10] = Body weight of tumour-bearing nude mice; conditions: Table I, Experiment I (SCLC-H69), end of experiment; control 26.3 ? 2.3; means ? s.d.
Text: Br. J. Cancer (1994). 70, 886 892 ? Macmillan Press Ltd.. […] Bombesin GRP antagonists. […] Lung carcinoma is the leading cause of cancer-related deaths in the western world. It is estimated that in 1992 there were approximately 168,000 new cases of lung cancer in the US and that about 146,000 deaths occurred from this disease (Boring et al., 1992). […] CeLs were passaged weekly and routinely monitored for myco- plasma contamination using a detection kit (Boehringer- Mannheim, Mannheim, Germany). […] The number of mitotic and apoptotic cells per 1,000 cells was determined, and the percentage area of necrosis in tumour sections was examined using the point-counting method (Szepeshazi et al., 1991, 1992), in which the crossing points of an ocular net that coincide with necrosis in various sections are counted. Radiommunoassays Serum levels of growth hormone were determined by double- antibody radioimmunoassay (RIA) using materials supplied by the National Hormone and Pituitary Program of the National Institute of Diabetes and Digestive and Kidney Diseases (NIDDK).

[11] = Serum gastrin radioimmunoassay in nude mice; assay type: in vivo; conditions: Table III, Experiment I (SCLC H-69), after treatment; double-antibody RIA; control 130.0 ? 10.8; means ? s.e.; **P < 0.01 vs control
[12] = tested on: IGF-I levels; conditions: patients with SCLC; ref Macauley et al. (1991); cited from earlier work
Text: as §2

[13] = H69 SCLC xenografts, as compared with control group, RC-160 100 µg, RC-3950-II 20 µg per animal per day s.c. peritumorally, 5 weeks
[14] = Table I, Experiment I (SCLC-H69), 5 weeks s.c. peritumoral, RC-160 100 µg/day, means ? s.d., *P<0.05 vs control
[15] = Table I, Experiment I (SCLC-H69), 5 weeks, RC-160 100 µg/day

Substance: His(Bz)2D, D-Trp23, D-Phe2, Leu'- GRP(14-27) [RC-3005]
- [3H]thymidine incorporation into DNA of H69 cells (in words) [1]: significantly suppressed
- [3H]Thymidine incorporation ([1]; 1.0 µg/ml): 100.0 2.0 per cent of control

Substance: somatostatin: native peptide somatostatin (AGCKNFFWKTFTSC; disulfide 3-14; ends not checked; UniProt P61278 103-116, looked up) [reference compound]
- Effect on EGF-stimulated cell growth (in words) [2]: reversed the stimulatory effect of EGF
- Effect on EGF-stimulated phosphorylation of the tyrosine kinase domain of the EGF receptors (in words) [2]: reversed the stimulatory effect of EGF

Substance: [D-Phe6, Leu'3*(CH,N)Tac'1 bombesin (6-14) [RC-3950-II]
- Reduction in tumour volumes [3, 13]: more than 80%
- Reduction in tumour weights [3, 13]: more than 80%
- Tumour weight [3, 14]: 0.03 0.03* g
- Tumour doubling time [3, 15]: 16.8 days
- Growth of H69 SCLC tumours (in words) ([3]; RC-160 100 µg, 5 weeks): greatest inhibitory effect
- Extent of necrosis (in words) ([4]; SCLC H69 tumours, point-counting method, differences from control not significant statistically): less exten- sive
- Apoptotic index ([4]; Table II, Experiment I (SCLC H69), apoptotic cells per 1,000 cells, control 35.4 ? 2.6, means ? s.e.): 41.5
- Mitotic index ([4]; Table II, Experiment I (SCLC H69), mitotic cells per 1,000 cells, control 37.9 ? 2.9, means ? s.e., *P < 0.05 vs control): 49.8
- EGF maximal binding capacity (Bmax) [5]: 93 fmol mg' protein
- IGF-I maximal binding capacity (Bmax) [6]: 226 fmol mg' protein
- Concentration of receptors for bombesin/GRP on H69 tumours (in words) [7]: reduced to non-detectable levels
- Somatostatin maximal binding capacity (Bmax) [8]: 390 fmol mg-'protein

Substance: D-Trp23, D-Phe5, Leu27- GRP(14-27) [RC-3009]
- [3H]thymidine incorporation into DNA of H69 cells (in words) [1]: significantly suppressed
- [3H]Thymidine incorporation ([1]; 1.0 µg/ml): 98.4 0.8 per cent of control
- [3H]Thymidine incorporation ([1]; 5.0 µg/ml, *P<0.05 vs control): 92.7 2.0* per cent of control

Substance: gastrin-releasing peptide (VPLPAGGGTVLTKMYPRGNHWAVGHLM; ends and bridges not checked; UniProt P07492 24-50, looked up) [GRP]
- Effect on phosphorylation of EGF receptors (in words) [9]: enhance the phosphorylation of EGF receptors

Substance: [Tpi6, Leu'3*(CH2N)Tpi'4 bombesin (6-16) [RC-3440]
- Tumour volume, final ([3]; Table I, Experiment I (SCLC-H69), 5 weeks s.c. peritumoral, RC-160 100 µg/day, RC-3440, RC-3095, RC-3950-II 20 µg/day per animal, control 249.7 ? 182.3, means ? s.d., ten animals per group, *P<0.05 vs control): 74.1 mm³
- Tumour weight [3, 14]: 0.076 ± 0.04* g
- Tumour doubling time [3, 15]: 12.1 days
- Growth of H69 SCLC tumours (in words) ([3]; RC-160 100 µg, 5 weeks): inhibited the growth of H69 SCLC tumours
- Body weight [10]: 26.2 ± 1.3 g
- Serum gastrin [11]: 92.7 8.2 pg ml'
- EGF maximal binding capacity (Bmax) [5]: 134 fmol mg' protein
- IGF-I maximal binding capacity (Bmax) [6]: 255 fmol mg' protein
- Bombesin/GRP maximal binding capacity (Bmax) ([7]; Table IV, Experiment I (SCLC-H69), tumour membranes after in vivo treatment, control 420, done once): 255 fmol mg-'protein
- Concentration of receptors for bombesin/GRP on H69 tumours (in words) [7]: markedly dereased
- Somatostatin maximal binding capacity (Bmax) [8]: 501 fmol mg-'protein

Substance: octreotide
- IGF-I levels (in words) [12]: reduced IGF-I levels
